Experimental data: ChEMBL document CHEMBL5338757, “Phototunable Cell Killing by Photochromic Diarylethene of Thiazoyl and Thienyl Derivatives” (J Med Chem, 2023)
Values belong to the molecule of their own block, whether it stands above or below them. Activity calls are given as the source filed them. The rule behind the calls is not given here.

What was measured:
HeLa [1] = assay: Phototoxicity against human HeLa cells assessed as cell death at 5 ppm incubated for 18 hrs followed by medium replacement and 436 nm blue light irradiation for 2 mins and measured after 2 hrs by microscopic analysis; type: functional, cell-based; details: time 20.03 hrs
HeLa [2] = assay: Phototoxicity against human HeLa cells assessed as cell death at 0.05 ppm incubated for 18 hrs followed by medium replacement and 436 nm blue light irradiation for 2 mins and measured after 2 hrs by microscopic analysis; type: functional, cell-based
DNA [3] = assay: Binding affinity to DNA (unknown origin) upto 25 uM incubated for 24 hrs in presence of ethidium bromide by […]; type: nucleic-acid assay
HeLa [4] = assay: Phototoxicity in human HeLa cells assessed as cell damage at 0.2 ppm irradiated with 546 nm green light; type: functional, cell-based
HeLa [5] = assay: Phototoxicity against human HeLa cells assessed as cell death at 0.02 to 5 ppm preincubated for 18 hrs under dark condition followed by medium replacement and 436 nm blue light irradiation for 2 mins and measured after 2 hrs by microscopic analysis; type: functional, cell-based; details: dose 0.02-5 ppm, time 20.03 hrs
HeLa [6] = assay: Phototoxicity against human HeLa cells assessed as cell shrinkage at 1 nM preincubated for 18 hrs under dark condition followed by medium replacement and 436 nm blue light irradiation for 2 mins and measured after 2 hrs by microscopic analysis; type: functional, cell-based; details: time 20.03 hrs
HeLa [7] = assay: Phototoxicity against human HeLa cells assessed as activation of BAX multiplication at 0.1 ppm with 436 nm blue light irradiation by Western blot analysis; type: functional, cell-based
DNA [8] = assay: Binding affinity to DNA (unknown origin) at 15 uM with 436 nm blue light irradiation incubated for 24 hrs by fluorescence based assay; type: nucleic-acid assay
HeLa [9] = assay: Phototoxicity against human HeLa cells assessed as caspase-3 activation at 0.1 ppm with 436 nm blue light irradiation by Western blot analysis; type: functional, cell-based; details: time 20.03 hrs
HeLa [10] = assay: Phototoxicity in human HeLa cells assessed as cell damage at 0.2 ppm pre-irradiated with 546 nm green light followed by 436 nm blue light irradiation; type: functional, cell-based
DNA [11] = assay: Binding affinity to DNA (unknown origin) assessed as redshift in absorption maxima at 15 uM with […] blue light irradiation incubated for 24 hrs by fluorescence based assay; type: nucleic-acid assay
HeLa [12] = assay: Phototoxicity against human HeLa cells assessed as BAK activation at 0.1 ppm with 436 nm blue light irradiation by Western blot analysis; type: functional, cell-based; details: time 20.03 hrs
HeLa [13] = assay: Phototoxicity against human HeLa cells assessed as CHK2 activation at 0.1 ppm with 436 nm blue light irradiation by Western blot analysis; type: functional, cell-based; details: time 20.03 hrs
HeLa [14] = assay: Phototoxicity against human HeLa cells assessed as BAX activation at 0.1 ppm with 436 nm blue light irradiation by Western blot analysis; type: functional, cell-based; details: time 20.03 hrs
HeLa [15] = assay: Phototoxicity against human HeLa cells assessed as ATM kinase activation at 0.1 ppm with 436 nm blue light irradiation by Western blot analysis; type: functional, cell-based; details: time 20.03 hrs
HeLa [16] = assay: Phototoxicity against human HeLa cells assessed as CHK1 activation at 0.1 ppm with 436 nm blue light irradiation by Western blot analysis; type: functional, cell-based; details: time 20.03 hrs
HeLa [17] = assay: Phototoxicity against human HeLa cells assessed as gamma-H2AX activation at 0.1 ppm with 436 nm blue light irradiation by Western blot analysis; type: functional, cell-based; details: time 20.03 hrs
HeLa [18] = assay: Phototoxicity against human HeLa cells assessed as cell rounding at 1 nM preincubated for 18 hrs under dark condition followed by medium replacement and 436 nm blue light irradiation for 2 mins and measured after 2 hrs by microscopic analysis; type: functional, cell-based; details: time 20.03 hrs
HeLa [19] = assay: Phototoxicity against human HeLa cells assessed as cleaved caspase-3 activation at 1 ppm with 365 and 436 nm light irradiation by Western blot analysis; type: functional, cell-based; details: time 18.0 hrs
HeLa [20] = assay: Phototoxicity against human HeLa cells assessed as ATM kinase activation at 1 ppm with 365 and 436 nm light irradiation by Western blot analysis; type: functional, cell-based
HeLa [21] = assay: Phototoxicity against human HeLa cells assessed as BAK activation at 1 ppm with 365 and 436 nm light irradiation by Western blot analysis; type: functional, cell-based
HeLa [22] = assay: Phototoxicity against human HeLa cells assessed as cell death at 0.5 ppm preincubated for 1 day followed by UV irradiation for 20 sec; type: functional, cell-based; details: time 86420.0 sec
DNA [23] = assay: Binding affinity to DNA (unknown origin) in aqueous media at 15 uM at 436 nm blue light irradiation incubated for 24 hrs by fluorescence based assay; type: nucleic-acid assay
DNA [24] = assay: Binding affinity to DNA (unknown origin) in aqueous media at 15 uM with > 546 nm blue light irradiation incubated for 24 hrs by CD spectra analysis; type: nucleic-acid assay
DNA [25] = assay: Binding affinity to DNA (unknown origin) in aqueous media at 15 uM with 436 nm blue light irradiation incubated for 24 hrs by CD spectra analysis; type: nucleic-acid assay
HeLa [26] = assay: Phototoxicity against human HeLa cells assessed as BAX activation at 1 ppm with 365 and 436 nm light irradiation by Western blot analysis; type: functional, cell-based
HeLa [27] = assay: Phototoxicity against human HeLa cells assessed as gamma-H2AX activation at 1 ppm with 365 and 436 nm light irradiation by Western blot analysis; type: functional, cell-based

SMILES: Cc1nc(-c2ccccc2)sc1C1=C(c2sc(-c3ccccc3)nc2C)C(F)(F)C(F)(F)C1(F)F
Activity (HeLa [1]): inactive

SMILES: CC12C=C(c3ccccc3)SC1=C1C(=C3SC(c4ccccc4)=CC32C)C(F)(F)C(F)(F)C1(F)F (stereo not given)
Activity (HeLa [2]): Active

SMILES: CC12N=C(c3ccccc3)SC1=C1C(=C3SC(c4ccccc4)=NC32C)C(F)(F)C(F)(F)C1(F)F (stereo not given)
Activity (HeLa [2]): Active

SMILES: CC12C=C(c3ccccc3)SC1=C1C(=C3SC(c4ccccc4)=NC32C)C(F)(F)C(F)(F)C1(F)F (stereo not given)
Activity (HeLa [2]): Active

SMILES: CC12SC(c3ccccc3)=NC1=C1C(=C3N=C(c4ccccc4)SC32C)C(F)(F)C(F)(F)C1(F)F (stereo not given)
KSV (DNA [3]): 27 10^3/M
Activity (HeLa [4]): Active
Activity (HeLa [5]): Active
Activity (HeLa [6]): Active
Activity (HeLa [7]): Active
Activity (DNA [8]): Active
Activity (HeLa [9]): Active
Activity (HeLa [10]): Active
Activity (DNA [11]): Active
Activity (HeLa [12]): Active
Activity (HeLa [13]): Active
Activity (HeLa [14]): Active
Activity (HeLa [15]): Active
Activity (HeLa [16]): Active
Activity (HeLa [17]): Active
Activity (HeLa [18]): Active

SMILES: Cc1cc(-c2ccccc2)sc1C1=C(c2sc(-c3ccccc3)nc2C)C(F)(F)C(F)(F)C1(F)F
Activity (HeLa [1]): inactive

SMILES: Cc1cc(-c2ccccc2)sc1C1=C(c2sc(-c3ccccc3)cc2C)C(F)(F)C(F)(F)C1(F)F
Activity (HeLa [1]): inactive

The next lines start with results.

KSV (DNA [3]): 27 10^3/M
Activity (DNA [8]): Active
Activity (DNA [11]): inactive
SMILES: CC12SC(c3ccccc3)=CC1=C1C(=C3C=C(c4ccccc4)SC32C)C(F)(F)C(F)(F)C1(F)F (stereo not given)
Activity (HeLa [5]): inactive

KSV (DNA [3]): 27 10^3/M
Activity (DNA [8]): Active
Activity (DNA [11]): Active
SMILES: C[C@]12SC(c3ccccc3)=CC1=C1C(=C3N=C(c4ccccc4)S[C@@]32C)C(F)(F)C(F)(F)C1(F)F
Activity (HeLa [5]): Active

KSV (DNA [3]): 1.6 10^3/M
Activity (DNA [8]): Active
Activity (DNA [11]): Active
Activity (DNA [23]): Active
Activity (DNA [24]): inactive
Activity (DNA [25]): Active
SMILES: Cc1sc(-c2ccccc2)nc1C1=C(c2nc(-c3ccccc3)sc2C)C(F)(F)C(F)(F)C1(F)F
Activity (HeLa [19]): inactive
Activity (HeLa [20]): inactive
Activity (HeLa [21]): inactive
Activity (HeLa [5]): inactive
Activity (HeLa [22]): inactive
Activity (HeLa [26]): inactive
Activity (HeLa [27]): inactive

KSV (DNA [3]): 1.6 10^3/M
Activity (DNA [8]): Active
Activity (DNA [11]): inactive
SMILES: Cc1sc(-c2ccccc2)cc1C1=C(c2cc(-c3ccccc3)sc2C)C(F)(F)C(F)(F)C1(F)F
Activity (HeLa [5]): inactive

KSV (DNA [3]): 1.6 10^3/M
Activity (DNA [8]): Active
Activity (DNA [11]): Active
SMILES: Cc1sc(-c2ccccc2)cc1C1=C(c2nc(-c3ccccc3)sc2C)C(F)(F)C(F)(F)C1(F)F
